Results on 18 compounds are retold here after patent publication US20240391936A1, “TETRAHYDROTHIENO PYRIDINE DERIVATIVES AS DDRS INHIBITORS” (CHIESI FARMACEUTICI S.P.A., priority 2021, published 2024).

pIC50, pKi: −log10 of the molar value. Some results are limits rather than exact numbers.

In assay [1] the target is T1, DDR1 (Homo sapiens, UniProt Q08345). Nature of the assay: DDR1 binding assay (LanthaScreen Europium Kinase Binding assay). Also noted: purchased Carna Biosciences. To be noted: binding assay, 5 nM DDR1, 20 nM Kinase Tracer 178; Ki from IC50 by Cheng-Prusoff; read-out: Ki DDR1. The method, boiled down:
(§1)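 Compounds incubated 1 h at room temperature with 5 nM kinase, Kinase Tracer 178 (20 nM for DDR1, 10 nM for DDR2) and 2 nM Eu-anti-GST antibody in pH 7.5 HEPES/MgCl2/EGTA/BRIJ35 buffer. TR-FRET 665/615 nm ratio read after 340 nm excitation; IC50 from 4-parameter fit, converted to Ki by Cheng-Prusoff.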

The target of assay [2] is T1, DDR1. As to the kind of experiment: DDR1 cell based assay (PathHunter U2OS DDR1 assay). Also noted: host or cells: U2OS-DDR1 (PathHunter). To be noted: U2OS-DDR1 cells, bovine Type II Collagen 20 μg/ml. The method, boiled down:
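U2OS-DDR1 PathHunter cells preincubated 30 min with compound, then stimulated overnight at 37 °C with 20 μg/ml bovine type II collagen. Luminescent complementation signal read after 1 h detection at room temperature; normalized to vehicle (0%) and collagen-only (100%) controls, IC50 from variable-slope sigmoidal fit.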

The next assay concerns the target T2, DDR2 (Homo sapiens, UniProt Q16832).
T2 sequence (Q16832 22-855): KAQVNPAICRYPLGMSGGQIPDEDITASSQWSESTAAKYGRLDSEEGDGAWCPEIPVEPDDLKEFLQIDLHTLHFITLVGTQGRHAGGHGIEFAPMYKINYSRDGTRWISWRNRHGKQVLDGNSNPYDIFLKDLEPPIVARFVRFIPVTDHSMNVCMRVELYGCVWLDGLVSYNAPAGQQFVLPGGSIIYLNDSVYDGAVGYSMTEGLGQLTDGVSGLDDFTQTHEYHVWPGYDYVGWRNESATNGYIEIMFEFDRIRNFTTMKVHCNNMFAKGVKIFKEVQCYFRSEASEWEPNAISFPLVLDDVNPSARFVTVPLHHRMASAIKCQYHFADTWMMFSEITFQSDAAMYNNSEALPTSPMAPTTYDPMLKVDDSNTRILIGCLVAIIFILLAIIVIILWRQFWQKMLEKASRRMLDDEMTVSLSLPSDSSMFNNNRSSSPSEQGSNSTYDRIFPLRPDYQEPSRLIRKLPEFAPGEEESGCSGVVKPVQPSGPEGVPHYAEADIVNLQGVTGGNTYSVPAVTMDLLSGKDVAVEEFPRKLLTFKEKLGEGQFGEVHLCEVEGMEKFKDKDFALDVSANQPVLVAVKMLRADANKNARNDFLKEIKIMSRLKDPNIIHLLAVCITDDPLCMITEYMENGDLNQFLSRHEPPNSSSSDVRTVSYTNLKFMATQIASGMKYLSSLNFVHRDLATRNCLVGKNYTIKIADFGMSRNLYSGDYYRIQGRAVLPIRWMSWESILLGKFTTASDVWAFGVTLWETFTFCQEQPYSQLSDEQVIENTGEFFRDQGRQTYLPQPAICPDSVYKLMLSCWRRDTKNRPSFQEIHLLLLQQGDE
As to the kind of experiment: DDR2 binding assay (LanthaScreen Europium Kinase Binding assay). To be noted: binding assay, 5 nM DDR2, 10 nM Kinase Tracer 178; Ki from IC50 by Cheng-Prusoff; read-out: Ki DDR2. Also on record: purchased Life Technologies. The method, boiled down: as §1
In general terms: In TR-FRET formats the signal depends on donor and acceptor labels being close together.

T1 sequence (Q08345 19-913): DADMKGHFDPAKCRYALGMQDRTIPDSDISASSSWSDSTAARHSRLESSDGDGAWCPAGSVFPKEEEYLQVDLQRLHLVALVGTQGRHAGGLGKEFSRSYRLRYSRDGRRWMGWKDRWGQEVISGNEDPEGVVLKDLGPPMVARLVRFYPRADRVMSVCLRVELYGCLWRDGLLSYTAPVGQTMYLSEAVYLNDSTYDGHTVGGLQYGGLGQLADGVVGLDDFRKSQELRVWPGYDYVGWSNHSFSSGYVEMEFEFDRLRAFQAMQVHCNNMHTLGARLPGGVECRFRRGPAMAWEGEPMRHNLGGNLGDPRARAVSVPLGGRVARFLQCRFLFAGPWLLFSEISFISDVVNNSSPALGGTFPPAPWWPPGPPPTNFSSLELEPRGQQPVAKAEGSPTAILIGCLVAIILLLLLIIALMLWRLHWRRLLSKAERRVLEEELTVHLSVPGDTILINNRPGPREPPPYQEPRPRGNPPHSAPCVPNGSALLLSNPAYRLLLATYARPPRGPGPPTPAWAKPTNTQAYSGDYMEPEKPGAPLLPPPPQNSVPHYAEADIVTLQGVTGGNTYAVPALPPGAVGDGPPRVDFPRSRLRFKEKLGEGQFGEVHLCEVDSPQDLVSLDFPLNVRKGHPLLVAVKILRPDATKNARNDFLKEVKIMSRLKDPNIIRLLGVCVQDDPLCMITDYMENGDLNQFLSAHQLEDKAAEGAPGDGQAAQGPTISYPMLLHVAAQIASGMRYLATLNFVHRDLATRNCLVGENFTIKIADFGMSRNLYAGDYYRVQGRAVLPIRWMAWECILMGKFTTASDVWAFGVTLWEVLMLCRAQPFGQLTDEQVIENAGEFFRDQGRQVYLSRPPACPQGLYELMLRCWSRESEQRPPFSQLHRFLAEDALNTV

With `CN(C)Cc1cc(NC(=O)c2csc3c2CCN(C(=O)c2cnc4ccccn24)C3)cc(C(F)(F)F)c1` [Example 19, N-(3-((dimethylamino)methyl)-5-(trifluoromethyl)phenyl)-6-(imidazo[1,2-a]pyridine-3-carbonyl)-4,5,6,7-tetrahydrothieno[2,3-c]pyridine-3-carboxamide], the pKi on DDR1 [1] and on DDR2 was greater than 7.60 in each case. Moreover, on DDR1 [2], the pIC50 was greater than 7.60.
Turning to `O=C(Nc1cncc(C(F)(F)F)c1)c1csc2c1CCN(C(=O)c1cnn3cccnc13)C2` [Example 109, 6-(pyrazolo[1,5-a]pyrimidine-3-carbonyl)-N-(5-(trifluoromethyl)pyridin-3-yl)-4,5,6,7-tetrahydrothieno[2,3-c]pyridine-3-carboxamide], the pKi at DDR1 [1] and at DDR2 was greater than 7.60 throughout. This compound showed a pIC50 against DDR1 [2] of 7.30 to 7.60.
Turning to `CN1CCN(Cc2ccc(NC(=O)c3csc4c3CCN(C(=O)c3cnc5ccccn35)C4)cc2C(F)(F)F)CC1` [Example 18, 6-(imidazo[1,2-a]pyridine-3-carbonyl)-N-(4-((4-methylpiperazin-1-yl)methyl)-3-(trifluoromethyl)phenyl)-4,5,6,7-tetrahydrothieno[2,3-c]pyridine-3-carboxamide], the pKi on DDR1 [1] and at DDR2 was greater than 7.60 each time. In addition, the negative-log IC50 (pIC50) against DDR1 [2] is 7.10 to 7.30.
Regarding `CC(F)(F)c1cncc(NC(=O)c2csc3c2CCN(C(=O)c2cnc4ccccn24)C3)c1` [Example 115, N-(5-(1,1-difluoroethyl)pyridin-3-yl)-6-(imidazo[1,2-a]pyridine-3-carbonyl)-4,5,6,7-tetrahydrothieno[2,3-c]pyridine-3-carboxamide], the pKi on DDR1 [1] and at DDR2 was greater than 7.60 throughout. At DDR1 [2], the pIC50 is 7.10 to 7.30.
Turning to `O=C(Nc1cc(C(F)(F)F)ncn1)c1csc2c1CCN(C(=O)c1cnc3ccccn13)C2` [Example 21, 6-(imidazo[1,2-a]pyridine-3-carbonyl)-N-(6-(trifluoromethyl)pyrimidin-4-yl)-4,5,6,7-tetrahydrothieno[2,3-c]pyridine-3-carboxamide], the pKi at DDR1 [1] and at DDR2 was greater than 7.60 throughout. Moreover, on DDR1 [2], the pIC50 was 7.30 to 7.60.
As to `CN(C)CCOc1cc(NC(=O)c2csc3c2CCN(C(=O)c2cnc4ccccn24)C3)cc(C(F)(F)F)c1` [Example 25, N-(3-(2-(dimethylamino)ethoxy)-5-(trifluoromethyl)phenyl)-6-(imidazo[1,2-a]pyridine-3-carbonyl)-4,5,6,7-tetrahydrothieno[2,3-c]pyridine-3-carboxamide], the pKi at DDR1 [1] and at DDR2 was greater than 7.60 throughout. The compound also had a pIC50 on DDR1 [2] of 7.30 to 7.60.
In the case of `Cc1n[nH]c2ncc(CN3CCc4c(C(=O)Nc5cc(CN6CC[C@@H](N(C)C)C6)cc(C(F)(F)F)c5)csc4C3)cc12` [Example 157, (R)—N-(3-((3-(dimethylamino)pyrrolidin-1-yl)methyl)-5-(trifluoromethyl)phenyl)-6-((3-methyl-1H-pyrazolo[3,4-b]pyridin-5-yl)methyl)-4,5,6,7-tetrahydrothieno[2,3-c]pyridine-3-carboxamide], the pKi is greater than 7.60 on DDR1 [1] and 7.30 to 7.60 on DDR2. Further, the negative logarithm of the IC50 (pIC50) against DDR1 [2] is 7.30 to 7.60.
In the case of `Cn1nc(C(C)(C)C)cc1NC(=O)c1csc2c1CCN(Cc1cnc3[nH]ncc3c1)C2` [Example 77, 6-((1H-pyrazolo[3,4-b]pyridin-5-yl)methyl)-N-(3-(tert-butyl)-1-methyl-1H-pyrazol-5-yl)-4,5,6,7-tetrahydrothieno[2,3-c]pyridine-3-carboxamide], the pKi on DDR1 [1] and at DDR2 was greater than 7.60 each time. Besides, the pIC50 against DDR1 [2] is greater than 7.60.
Regarding `O=C(Nc1ccc(CO)c(C(F)(F)F)c1)c1csc2c1CCN(C(=O)c1cnc3ccccn13)C2` [Example 132, N-(4-(hydroxymethyl)-3-(trifluoromethyl)phenyl)-6-(imidazo[1,2-a]pyridine-3-carbonyl)-4,5,6,7-tetrahydrothieno[2,3-c]pyridine-3-carboxamide], the pKi at DDR1 [1] and on DDR2 was greater than 7.60 throughout. The same compound gave a pIC50 against DDR1 [2] greater than 7.60.
In the case of `Cc1cn(-c2cc(NC(=O)c3csc4c3CCN(Cc3cnc5ccccn35)C4)cc(C(F)(F)F)c2)cn1` [Example 65, 6-(imidazo[1,2-a]pyridin-3-ylmethyl)-N-(3-(4-methyl-11H-imidazol-1-yl)-5-(trifluoromethyl)phenyl)-4,5,6,7-tetrahydrothieno[2,3-c]pyridine-3-carboxamide], the pKi on DDR1 [1] and at DDR2 was greater than 7.60 each time. In addition, the pIC50 against DDR1 [2] was 7.10 to 7.30.
Regarding `O=C(Nc1cc(CN2CCOCC2)cc(C(F)(F)F)c1)c1csc2c1CCN(C(=O)c1cnn3ccncc13)C2` [Example 172, N-(3-(morpholinomethyl)-5-(trifluoromethyl)phenyl)-6-(pyrazolo[1,5-a]pyrazine-3-carbonyl)-4,5,6,7-tetrahydrothieno[2,3-c]pyridine-3-carboxamide], the pKi on DDR1 [1] and at DDR2 was greater than 7.60 each time. For the same compound, the pIC50 on DDR1 [2] was 7.30 to 7.60.
On to `CN(Cc1cc(NC(=O)c2csc3c2CCN(C(=O)c2cnc4ccccn24)C3)cc(C(F)(F)F)c1)C1COC1` [Example 53, 6-(imidazo[1,2-a]pyridine-3-carbonyl)-N-(3-((methyl(oxetan-3-yl)amino)methyl)-5-(trifluoromethyl)phenyl)-4,5,6,7-tetrahydrothieno[2,3-c]pyridine-3-carboxamide], for which the pKi on DDR1 [1] and on DDR2 was greater than 7.60 each time. At DDR1 [2], this compound gave a pIC50 of 7.10 to 7.30.
Take `CC1CN(C(=O)c2cnc3ccccn23)Cc2scc(C(=O)Nc3cccc(C(F)(F)F)c3)c21` (stereo not drawn) [Example 185, 6-(imidazo[1,2-a]pyridine-3-carbonyl)-4-methyl-N-(3-(trifluoromethyl)phenyl)-4,5,6,7-tetrahydrothieno[2,3-c]pyridine-3-carboxamide]: the pKi on DDR1 [1] and at DDR2 was greater than 7.60 each time. Also, the pIC50 against DDR1 [2] was greater than 7.60.
In the case of `CCC(C)(C)c1cc(NC(=O)c2csc3c2CCN(C(=O)c2cnn4ccncc24)C3)on1` [Example 179, N-(3-(tert-pentyl)isoxazol-5-yl)-6-(pyrazolo[1,5-a]pyrazine-3-carbonyl)-4,5,6,7-tetrahydrothieno[2,3-c]pyridine-3-carboxamide], the pKi at DDR1 [1] and on DDR2 was greater than 7.60 throughout. In addition, the pIC50 against DDR1 [2] is 7.10 to 7.30.
Regarding `O=C(Nc1cncc(C(F)(F)F)c1)c1csc2c1CCN(C(=O)c1cnn3ccsc13)C2` [Example 141, 6-(pyrazolo[5,1-b]thiazole-7-carbonyl)-N-(5-(trifluoromethyl)pyridin-3-yl)-4,5,6,7-tetrahydrothieno[2,3-c]pyridine-3-carboxamide], the negative logarithm of the Ki (pKi) on DDR1 [1] and at DDR2 was greater than 7.60 throughout. The pIC50 against DDR1 [2] was greater than 7.60.
With `O=C(Nc1ccc(OC2COC2)c(C(F)(F)F)c1)c1csc2c1CCN(C(=O)c1cnc3ccccn13)C2` [Example 13, 6-(imidazo[1,2-a]pyridine-3-carbonyl)-N-(4-(oxetan-3-yloxy)-3-(trifluoromethyl)phenyl)-4,5,6,7-tetrahydrothieno[2,3-c]pyridine-3-carboxamide], the pKi at DDR1 [1] and on DDR2 was greater than 7.60 throughout. The same compound had a pIC50 against DDR1 [2] greater than 7.60.
In the case of `CC(C)(C)c1coc(NC(=O)c2csc3c2CCN(C(=O)c2cnc4ccccn24)C3)n1` [Example 47, N-(4-(tert-butyl)oxazol-2-yl)-6-(imidazo[1,2-a]pyridine-3-carbonyl)-4,5,6,7-tetrahydrothieno[2,3-c]pyridine-3-carboxamide], the pKi on DDR1 [1] and at DDR2 was greater than 7.60 each time. This compound also gave a pIC50 at DDR1 [2] of 7.30 to 7.60.
`Cn1ccn2ncc(C(=O)N3CCc4c(C(=O)Nc5cncc(C(F)(F)F)c5)csc4C3)c12` [Example 143, 6-(1-methyl-1H-imidazo[1,2-b]pyrazole-7-carbonyl)-N-(5-(trifluoromethyl)pyridin-3-yl)-4,5,6,7-tetrahydrothieno[2,3-c]pyridine-3-carboxamide]: the negative-log Ki (pKi) on DDR1 [1] and at DDR2 was greater than 7.60 throughout. On DDR1 [2], this compound showed a pIC50 greater than 7.60.

The term pKi denotes −log10 of the Ki, conventionally taken in molar units. Usually pIC50 stands for the negative decadic logarithm of the IC50, by convention in mol/L.
